Literature values in patent US20160244831A9, “Genetic Alterations Associated with Autism and the Autistic Phenotype and Methods of Use Thereof for the Diagnosis and Treatment of Autism” (The Children's Hospital of Philadelphia, priority 2011, published 2016).

How the values were obtained:
[1] = at levels that are highly teratogenic in humans
[2] = individuals exposed between days 24-28 post-fertilization

rate of ASD [2]	Structure (SMILES)	teratogenicity in animals [1]	expression of RANBP1 mRNA (RANBP1 mRNA)
27%	O=C1CCC(N2C(=O)c3ccccc3C2=O)C(=O)N1 (stereo not shown) [Thalidomide]	lack of teratogenicity	decreased expression
–	CCCC(CCC)C(=O)O [Valproate, Valproic acid]	–	decreased expression
